{
  "source": "paper PMC10017685",
  "about": "(Nature Communications, 2023)",
  "origin": "cited, not measured here",
  "data": [
    {"system": "human erythrocytes", "parameters": "method as in DBAASP", "settings": "toxicity class label 1 or 0, meaning of the labels not given; DBAASP HC50 data, human erythrocytes; ref DBAASP; cited from earlier work", "values": [
      {"sequence": "VRRFAWWWAFLRR [DBAASP_5137]", "Class (dedicated toxicity dataset used for toxicity classifier evaluation)": 0},
      {"sequence": "VRRFAWWWPFLRR [DBAASP_5142]", "Class (dedicated toxicity dataset used for toxicity classifier evaluation)": 0},
      {"sequence": "VRRFPAAAPFLRR [DBAASP_14271]", "Class (dedicated toxicity dataset used for toxicity classifier evaluation)": 0},
      {"sequence": "VRRFPWAWPFLRR [DBAASP_14266]", "Class (dedicated toxicity dataset used for toxicity classifier evaluation)": 0},
      {"sequence": "VRRFPWWAPFLRR [DBAASP_14267]", "Class (dedicated toxicity dataset used for toxicity classifier evaluation)": 0},
      {"sequence": "VRRFPWWYPFLRR [DBAASP_14261]", "Class (dedicated toxicity dataset used for toxicity classifier evaluation)": 0},
      {"sequence": "VRRFPWYWPFLRR [DBAASP_14260]", "Class (dedicated toxicity dataset used for toxicity classifier evaluation)": 0},
      {"sequence": "VRRFPWYYPFLRR [DBAASP_14263]", "Class (dedicated toxicity dataset used for toxicity classifier evaluation)": 0},
      {"sequence": "VRRFPYWWPFLRR [DBAASP_14259]", "Class (dedicated toxicity dataset used for toxicity classifier evaluation)": 0},
      {"sequence": "VRRFPYWYPFLRR [DBAASP_14264]", "Class (dedicated toxicity dataset used for toxicity classifier evaluation)": 0},
      {"sequence": "VRRFPYYWPFLRR [DBAASP_14262]", "Class (dedicated toxicity dataset used for toxicity classifier evaluation)": 0},
      {"sequence": "WCRRYRVLVRGVLVRYRRCW [DBAASP_13507]", "Class (dedicated toxicity dataset used for toxicity classifier evaluation)": 0},
      {"sequence": "WIRRIKKWIRRVHK [DBAASP_10626]", "Class (dedicated toxicity dataset used for toxicity classifier evaluation)": 0},
      {"sequence": "WKIFKLKLRMLW [DBAASP_13717]", "Class (dedicated toxicity dataset used for toxicity classifier evaluation)": 1},
      {"sequence": "WKKIWSKIKKLLK [DBAASP_7155]", "Class (dedicated toxicity dataset used for toxicity classifier evaluation)": 0},
      {"sequence": "WKKWWKKWWKKW [DBAASP_10848]", "Class (dedicated toxicity dataset used for toxicity classifier evaluation)": 0},
      {"sequence": "WKRRIKIWKKIR [DBAASP_10625]", "Class (dedicated toxicity dataset used for toxicity classifier evaluation)": 0},
      {"sequence": "WLRRIGKGVKIIGGAALDHL [DBAASP_5344]", "Class (dedicated toxicity dataset used for toxicity classifier evaluation)": 0},
      {"sequence": "WLRRIKAWLRRIKA [DBAASP_7164]", "Class (dedicated toxicity dataset used for toxicity classifier evaluation)": 0},
      {"sequence": "WLRRIKAWLRRKRK [DBAASP_10627]", "Class (dedicated toxicity dataset used for toxicity classifier evaluation)": 0},
      {"sequence": "WRRRRRRRR [DBAASP_8812]", "Class (dedicated toxicity dataset used for toxicity classifier evaluation)": 0},
      {"sequence": "WRRRYRRWRRRRRWRRRPRR [DBAASP_10396]", "Class (dedicated toxicity dataset used for toxicity classifier evaluation)": 0},
      {"sequence": "WRWLRRIW [DBAASP_10631]", "Class (dedicated toxicity dataset used for toxicity classifier evaluation)": 0},
      {"sequence": "WWRLRRIW [DBAASP_10632]", "Class (dedicated toxicity dataset used for toxicity classifier evaluation)": 0},
      {"sequence": "WWWLKKIW [DBAASP_9820]", "Class (dedicated toxicity dataset used for toxicity classifier evaluation)": 0},
      {"sequence": "WWWLRRIR [DBAASP_10635]", "Class (dedicated toxicity dataset used for toxicity classifier evaluation)": 0},
      {"sequence": "WWWLRRIW [DBAASP_10629]", "Class (dedicated toxicity dataset used for toxicity classifier evaluation)": 0},
      {"sequence": "WWWLRRRW [DBAASP_10634]", "Class (dedicated toxicity dataset used for toxicity classifier evaluation)": 0},
      {"sequence": "WWWRRRIW [DBAASP_10633]", "Class (dedicated toxicity dataset used for toxicity classifier evaluation)": 0},
      {"sequence": "YLRLIRYMAKMI [DBAASP_17183]", "Class (dedicated toxicity dataset used for toxicity classifier evaluation)": 0}
    ]}
  ]
}
